Experimental findings from US20260102387A1, “IMMUNOSUPPRESSIVE COMPOUNDS” (UNIVERSITÄT BASEL, priority 2022, published 2026) are described below.

“Also recorded” adds a separate entry of the source.

One experiment has as its system coronin 1 promoter. The experiment can be described thus: EC50 analysis for coronin 1 promoter driven GFP inhibition by flow cytometry in RBL cells. The settings on record: Amlodipine 3.125 μM, verapamil 8 μM, 48 h, flow cytometry. Format: cell-based. The method, then:
RBL cells that had been incubated with the indicated calcium channel blockers (amlodipine (3.125 μM) and verapamil (8 μM) concentrations for 48 h were analyzed by flow cytometry for any alteration in coronin 1 promoter driven GFP fluorescence. The results reveal no effect of calcium channel blockers on coronin 1 promoter activity (FIG. 4).
RBL cells expressing GFP under coronin 1 promoter and optionally with RBL cells expressing RFP under CMV promoter were mixed in equal numbers and incubated with the compounds at indicated concentrations for 48-65 h and analyzed by flow cytometry for alteration in coronin 1 promoter (GFP fluorescence), CMV promoter (RFP fluorescence) values. In addition, the cells were labelled with live-dead marker for assessing cell viability status by flow cytometry. Cycloheximide (CHX) serves as positive control and DMSO serves as negative controls. Effective Concentration (EC50) values for coronin 1 promoter inhibition via GFP fluorescence analysis, non-specific promoter inhibition via CMV promoter driven-RFP fluorescence analysis and cell viability via live/dead staining as a measure for toxicity in flow cytometry for compounds (10-22 and 50a-65a) are shown in Table 6 and Table 7. Based on the EC50 analysis of the inhibition of coronin 1 promoter driven GFP fluorescence the (4S,7R)-configurated eutomers were identified (Structures FIG. 9A-C). This is exemplified for compounds containing two stereocenters by eutomers 11c and 13a. […] Subsequent EC50 evaluations (Table 7) were performed with compound 13a as standard for relative potency normalized to a value of 1.00 (relative potency calculated as [EC50 GFP inhibition 13a]/[EC50 GFP inhibition compound of interest]).
On the technique in general: In flow cytometry, cells or beads pass a laser one at a time.
Consider `CCOC(=O)C1=C(COCCN)NC(C)=C(C(=O)OC)C1c1ccccc1Cl` (stereo not shown) [Amlodipine, reference compound], for which the “coronin 1 promoter activity as assessed by GFP reduction” value is on record as “no effect”.
Regarding `COc1ccc(CCN(C)CCCC(C#N)(c2ccc(OC)c(OC)c2)C(C)C)cc1OC` (stereo not shown) [verapamil, reference compound], the “coronin 1 promoter activity as assessed by GFP reduction” value is reported as “no effect; also recorded: not inhibiting coronin 1 promoter activity”.

Still in this experiment, the particulars now being: [EC50 GFP inhibition 13a]/[EC50 GFP inhibition compound of interest]; 13a = 1.00.
For `COc1ccccc1[C@H]1CC(=O)C2=C(C1)NC(C)=C(C(=O)OC1CCCOCC1)[C@H]2c1cccc(O)c1` (mixture of isomers) [54a, oxepan-4-yl 4-(3-hydroxyphenyl)-7-(2-methoxyphenyl)-2-methyl-5-oxo-1,4,5,6,7,8-hexahydroquinoline-3-carboxylate], the “rel. potency GFP inhibition” value is 0.88.
Same read-out and setting: the value for `COc1ccccc1[C@H]1CC(=O)C2=C(C1)NC(C)=C(C(=O)OC1CCOCC1)C2c1ccc(F)c(O)c1` (mixture of isomers) [66b, tetrahydro-2H-pyran-4-yl 4-(4-fluoro-3-hydroxyphenyl)-7-(2-methoxyphenyl)-2-methyl-5-oxo-1,4,5,6,7,8-hexahydroquinoline-3-carboxylate] was 0.25.
The same measure, in the same setting: next, `COc1ccccc1C1CC(=O)C2=C(C1)NC(C)=C(C(=O)OC1CCOCC1)C2c1ccc(F)c(O)c1F` (racemic) [67b, tetrahydro-2H-pyran-4-yl 4-(2,4-difluoro-3-hydroxyphenyl)-7-(2-methoxyphenyl)-2-methyl-5-oxo-1,4,5,6,7,8-hexahydroquinoline-3-carboxylate]: 0.25; `COc1ccccc1[C@H]1CC(=O)C2=C(C1)NC(C)=C(C(=O)OC[C@H]1CCCO1)[C@H]2c1cccc(O)c1` [12g, tetrahydro-2-furanylmethyl (4S, 7R)-4-(3-hydroxyphenyl)-7-(2-methoxyphenyl)-2-methyl-5-oxo-1,4,5,6,7,8-hexahydro-3-quinolinecarboxylate]: 1.00; `COc1ccccc1[C@@H]1CC(=O)C2=C(C1)NC(C)=C(C(=O)OC1CCOCC1)[C@@H]2c1cccc(O)c1` [13d, tetrahydro-2H-pyran-4-yl-4-(3-hydroxyphenyl)-7-(2-methoxyphenyl)-2-methyl-5-oxo-1,4,5,6,7,8-hexahydro-3-quinolinecarboxylate]: 0.09.
Still for that read-out and setting: next, `COc1ccccc1[C@@H]1CC(=O)C2=C(C1)NC(C)=C(C(=O)OC1CCOCC1)[C@H]2c1cccc(O)c1` [13e, tetrahydro-2H-pyran-4-yl-4-(3-hydroxyphenyl)-7-(2-methoxyphenyl)-2-methyl-5-oxo-1,4,5,6,7,8-hexahydro-3-quinolinecarboxylate]: less than 0.01.
Consider `COc1ccccc1[C@H]1CC(=O)C2=C(C1)NC(C)=C(C(=O)OC1CCOCC1)[C@@H]2c1cccc(O)c1` [13f, tetrahydro-2H-pyran-4-yl-4-(3-hydroxyphenyl)-7-(2-methoxyphenyl)-2-methyl-5-oxo-1,4,5,6,7,8-hexahydro-3-quinolinecarboxylate], for which the “rel. potency GFP inhibition” value is given as less than 0.01.
With `COc1ccccc1[C@H]1CC(=O)C2=C(C1)NC(C)=C(C(=O)O[C@H]1CCOC1)[C@H]2c1cccc(O)c1` [50a, tetrahydrofuran-3-yl (4S, 7R)-4-(3-hydroxyphenyl)-7-(2-methoxyphenyl)-2-methyl-5-oxo-1,4,5,6,7,8-hexahydroquinoline-3-carboxylate], the “rel. potency GFP inhibition” value stood at 0.73.
Same read-out and setting: the value for `COc1ccccc1[C@H]1CC(=O)C2=C(C1)NC(C)=C(C(=O)O[C@@H]1CCOC1)[C@H]2c1cccc(O)c1` [50b, tetrahydrofuran-3-yl (4S, 7R)-4-(3-hydroxyphenyl)-7-(2-methoxyphenyl)-2-methyl-5-oxo-1,4,5,6,7,8-hexahydroquinoline-3-carboxylate] was 1.23; that for `COc1ccccc1[C@H]1CC(=O)C2=C(C1)NC(C)=C(C(=O)OC1(C)CCOCC1)[C@H]2c1cccc(O)c1` [51a, 4-methyltetrahydro-2H-pyran-4-yl (4S, 7R)-4-(3-hydroxyphenyl)-7-(2-methoxyphenyl)-2-methyl-5-oxo-1,4,5,6,7,8-hexahydroquinoline-3-carboxylate] was 1.13; that for `COc1ccccc1[C@H]1CC(=O)C2=C(C1)NC(C)=C(C(=O)OC1CC(C)(C)OC(C)(C)C1)[C@H]2c1cccc(O)c1` [52a, 2,2,6,6-tetramethyltetrahydro-2H-pyran-4-yl (4S, 7R)-4-(3-hydroxyphenyl)-7-(2-methoxyphenyl)-2-methyl-5-oxo-1,4,5,6,7,8-hexahydroquinoline-3-carboxylate] was 0.62.
Same read-out and setting: next, `COc1ccccc1[C@H]1CC(=O)C2=C(C1)NC(C)=C(C(=O)OC1CC3CCC(C1)O3)[C@H]2c1cccc(O)c1` (stereo partly drawn) [53a, 8-oxabicyclo[3.2.1]octan-3-yl (4S, 7R)-4-(3-hydroxyphenyl)-7-(2-methoxyphenyl)-2-methyl-5-oxo-1,4,5,6,7,8-hexahydroquinoline-3-carboxylate]: 1.42.
On to `COc1ccccc1[C@H]1CC(=O)C2=C(C1)NC(C)=C(C(=O)O[C@H]1CO[C@H]3OCC[C@H]31)[C@H]2c1cccc(O)c1` [55a, (3R,3aS,6aR)-hexahydrofuro[2,3-b]furan-3-yl (4S, 7R)-4-(3-hydroxyphenyl)-7-(2-methoxyphenyl)-2-methyl-5-oxo-1,4,5,6,7,8-hexahydroquinoline-3-carboxylate], for which the “rel. potency GFP inhibition” value came out at 0.61.
With `COc1ccccc1[C@H]1CC(=O)C2=C(C1)NC(C)=C(C(=O)OC1CCCC1)[C@H]2c1cccc(O)c1` [56a, cyclopentyl (4S, 7R)-4-(3-hydroxyphenyl)-7-(2-methoxyphenyl)-2-methyl-5-oxo-1,4,5,6,7,8-hexahydroquinoline-3-carboxylate], the “rel. potency GFP inhibition” value is given as 0.21.
On the same count and under the same terms, the value for `COc1ccccc1[C@H]1CC(=O)C2=C(C1)NC(C)=C(C(=O)OC1CCCCC1)[C@H]2c1cccc(O)c1` [57a, cyclohexyl (4S, 7R)-4-(3-hydroxyphenyl)-7-(2-methoxyphenyl)-2-methyl-5-oxo-1,4,5,6,7,8-hexahydroquinoline-3-carboxylate] was 0.24; that for `CCOC(=O)C1=C(C)NC2=C(C(=O)C[C@H](c3ccccc3OC)C2)[C@@H]1c1cccc(O)c1` [58a, ethyl (4S, 7R)-4-(3-hydroxyphenyl)-7-(2-methoxyphenyl)-2-methyl-5-oxo-1,4,5,6,7,8-hexahydroquinoline-3-carboxylate] was 0.36; that for `CCCCOC(=O)C1=C(C)NC2=C(C(=O)C[C@H](c3ccccc3OC)C2)[C@@H]1c1cccc(O)c1` [59a, butyl (4S, 7R)-4-(3-hydroxyphenyl)-7-(2-methoxyphenyl)-2-methyl-5-oxo-1,4,5,6,7,8-hexahydroquinoline-3-carboxylate] was 0.18.
The same measure, in the same setting: next, `COc1ccccc1[C@H]1CC(=O)C2=C(C1)NC(C)=C(C(=O)OCC(C)(C)C)[C@H]2c1cccc(O)c1` [60a, neopentyl (4S, 7R)-4-(3-hydroxyphenyl)-7-(2-methoxyphenyl)-2-methyl-5-oxo-1,4,5,6,7,8-hexahydroquinoline-3-carboxylate]: 0.20.
Same read-out and setting: the value for `CCC(CC)COC(=O)C1=C(C)NC2=C(C(=O)C[C@H](c3ccccc3OC)C2)[C@@H]1c1cccc(O)c1` [61a, 2-ethylbutyl (4S, 7R)-4-(3-hydroxyphenyl)-7-(2-methoxyphenyl)-2-methyl-5-oxo-1,4,5,6,7,8-hexahydroquinoline-3-carboxylate] was 0.10; that for `CCC(C)(C)COC(=O)C1=C(C)NC2=C(C(=O)C[C@H](c3ccccc3OC)C2)[C@@H]1c1cccc(O)c1` [62a, 2,2-dimethylbutyl (4S, 7R)-4-(3-hydroxyphenyl)-7-(2-methoxyphenyl)-2-methyl-5-oxo-1,4,5,6,7,8-hexahydroquinoline-3-carboxylate] was 0.10.
As for `COc1ccccc1[C@H]1CC(=O)C2=C(C1)NC(C)=C(C(=O)OCCCC(C)(C)C)[C@H]2c1cccc(O)c1` [63a, 4,4-dimethylpentyl (4S, 7R)-4-(3-hydroxyphenyl)-7-(2-methoxyphenyl)-2-methyl-5-oxo-1,4,5,6,7,8-hexahydroquinoline-3-carboxylate], the “rel. potency GFP inhibition” value turned out to be 0.07.
With `CCOCCOCCOC(=O)C1=C(C)NC2=C(C(=O)C[C@H](c3ccccc3OC)C2)[C@@H]1c1cccc(O)c1` [64a, 2-(2-ethoxyethoxy)ethyl (4S, 7R)-4-(3-hydroxyphenyl)-7-(2-methoxyphenyl)-2-methyl-5-oxo-1,4,5,6,7,8-hexahydroquinoline-3-carboxylate], the “rel. potency GFP inhibition” value is 0.62.
Regarding `CCCCCCOCCOCCOCCOC(=O)C1=C(C)NC2=C(C(=O)C[C@H](c3ccccc3OC)C2)[C@@H]1c1cccc(O)c1` [65a, 2-(2-(2-(hexyloxy)ethoxy)ethoxy)ethyl (4S, 7R)-4-(3-hydroxyphenyl)-7-(2-methoxyphenyl)-2-methyl-5-oxo-1,4,5,6,7,8-hexahydroquinoline-3-carboxylate], the “rel. potency GFP inhibition” value is 0.12.
